The source of these data is ChEMBL document CHEMBL1128197 (J Med Chem, 1995).

The structures appear in SMILES notation.

In this assay the target is Translocator protein (Rattus norvegicus, UniProt P16257). In words: Binding affinity constant for peripheral (mitochondrial) Benzodiazepine receptor.
Sequence of Translocator protein (P16257 whole entry, looked up): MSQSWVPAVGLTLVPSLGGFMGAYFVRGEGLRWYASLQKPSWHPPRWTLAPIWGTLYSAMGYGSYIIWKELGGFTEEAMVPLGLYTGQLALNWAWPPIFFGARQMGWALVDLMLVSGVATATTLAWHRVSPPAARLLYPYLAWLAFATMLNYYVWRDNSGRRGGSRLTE
Regarding `C1=C(c2ccccc2)Sc2ccccc2-n2cccc21`, the Ki (usually the dissociation constant of the complex between target and ligand, obtained from inhibition or displacement) was found to be 3150 nM. `COC1=C(c2ccccc2)Sc2ccccc2-n2cccc21` returned an inhibition constant (Ki) of 7000 nM. The same measure, in the same setting: the result for `COc1ccc(C2=C(OC(=O)c3cc(OC)c(OC)c(OC)c3)c3cccn3-c3cc(Cl)ccc3S2)cc1` reads more than 10 nM; that for `COc1ccc(C2=C(OC(=O)c3cccnc3)c3cccn3-c3ccccc3S2)cc1`, more than 10 nM; that for `CC(=O)OC1=C(c2ccc(Cl)cc2)Sc2ccccc2-n2cccc21`, 30 nM. Turning to `CN1CCN=C(c2ccccc2)c2cc(Cl)ccc21` [MEDAZEPAM], the Kd (commonly the concentration at which binding is half-saturated) was more than 10 nM. For `CN(C)C(=O)OC1=C(c2ccccc2)Sc2ccccc2-n2cccc21`, the affinity corresponds to a Ki of 9 nM. Same read-out and setting: under `COc1ccc(C2=C(OS(C)(=O)=O)c3cccn3-c3ccccc3S2)cc1` stands 95 nM.
